These results are taken from patent publication US20250280826A1, “PLANT GROWTH PROMOTER” (KAO CORPORATION, priority 2022, published 2025).

This series is classed as physicochemical. Conditions: in 100 μL of isobutyl alcohol. Here is the method:
The amount of BHT dissolved in 100 μL of isobutyl alcohol was changed. […] For other solvents, solubility was similarly confirmed at a ratio of BHT:solvent=1:4. […] The reagents used were those manufactured by FUJIFILM Wako Pure Chemical Corporation.

dibutylhydroxytoluene [BHT]: the “amount of BHT uniformly dissolved” value is “up to 25 mg”.
